The test system of this test is Plasmodium berghei. The test is described as follows: Luciferase/luciferin-expressing antifolate-resistant parasites were used to infect a culture of HepG2 cells that were pre-incubated with compounds. Infected hepatocytes emit light due to the luciferase reaction. Assay results are presented as the percent inhibition of light emission compared to control. […]. The following applies: sporozoite; for IC90: read-out: LUCIFERASE INFECTION ASSAY - IC90. In kind it is functional.

pIC50: −log10 of the molar value.

As usually defined, the pIC50 is the negative decadic logarithm of the IC50, by convention in mol/L. A word on the IC90: it is the point of the concentration-response curve where the effect stands at 90%. As for `CCc1c(C)nc2c(-c3ccccc3)c(C)nn2c1Nc1ccc(NC(C)=O)cc1`, the concentration for an effect of 90% (IC90) is more than 8.26 µM. Moreover, the negative-log IC50 (pIC50) (PBLUC_HILL_SLOPE 3.43, PBLUC_R_SQUARED 0.461, read-out: LUCIFERASE INFECTION ASSAY - IC50) is 5.26.
Regarding `COc1cccc(-c2cc3c(Nc4cccnc4)nccc3[nH]2)c1`, the 90% effect concentration (IC90) was more than 10 µM. Also, where the note is “PBLUC_HILL_SLOPE 3.56, PBLUC_R_SQUARED 0.0884, read-out: LUCIFERASE INFECTION ASSAY - IC50”, the negative logarithm of the IC50 (pIC50) was 5.04.
On to `CN(C)c1cccc(-c2cnc3cnc(-c4ccc(CO)cc4)cn23)c1`, for which the IC90 was more than 9.58 µM. Also, the pIC50 (PBLUC_HILL_SLOPE 3.53, PBLUC_R_SQUARED 0.408, read-out: LUCIFERASE INFECTION ASSAY - IC50) was 5.16.
With `COc1cccc(-c2cc3c(Nc4cccc(N(C)C)c4)nccc3n2C)c1`, the IC90 was found to be 8.25 µM. The pIC50 (PBLUC_HILL_SLOPE 3.57, PBLUC_R_SQUARED 0.3, read-out: LUCIFERASE INFECTION ASSAY - IC50) is 5.35.
Consider `CNC(=O)c1ccc(CN(C2CC2)S(=O)(=O)c2ccc(Br)s2)cc1`, for which the IC90 is more than 10 µM. In addition, the pIC50 (PBLUC_HILL_SLOPE 3.54, PBLUC_R_SQUARED 0.19, read-out: LUCIFERASE INFECTION ASSAY - IC50) is 5.23.
As to `CSc1c(-c2ccc(Cl)cc2)[nH]c2ccccc12`, the IC90 is more than 12.1 µM. Also, the negative logarithm of the IC50 (pIC50) (PBLUC_HILL_SLOPE 3.51, PBLUC_R_SQUARED 0.189, read-out: LUCIFERASE INFECTION ASSAY - IC50) was 4.95.
`O=C(c1ccco1)N1CCN(c2nc(-c3ccsc3)nc3ccccc23)CC1`: the 90% effect concentration (IC90) was more than 10 µM. The negative logarithm of the IC50 (pIC50) (PBLUC_HILL_SLOPE 3.55, PBLUC_R_SQUARED 0.0384, read-out: LUCIFERASE INFECTION ASSAY - IC50) was 5.14.
As to `CN(C)CCCOc1ccc(-c2nnc3ccc(-c4cccc(OC(F)(F)F)c4)cn23)cc1`, the concentration for an effect of 90% (IC90) was more than 10 µM. The pIC50 (PBLUC_HILL_SLOPE 3.54, PBLUC_R_SQUARED 0.437, read-out: LUCIFERASE INFECTION ASSAY - IC50) is 5.11.
With `N#CCCN(Cc1ccco1)C(=O)Cn1ncc(Cl)c(Cl)c1=O`, the IC90 was more than 10 µM. For the same compound, the pIC50 (PBLUC_HILL_SLOPE 3.57, PBLUC_R_SQUARED 0.442, read-out: LUCIFERASE INFECTION ASSAY - IC50) was 5.08.
As to `Cc1cccc(C(=O)Nc2nc3ccc(C)cn3c2C(=O)NC2CCCC2)c1`, the concentration for an effect of 90% (IC90) was 7.46 µM. The negative-log IC50 (pIC50) (PBLUC_HILL_SLOPE 3.54, PBLUC_R_SQUARED 0.461, read-out: LUCIFERASE INFECTION ASSAY - IC50) is 5.40.
With `COc1ccc(Cn2c(C3CC(=O)N(C)C3)nc3ccccc32)cc1` (configuration not stated), the IC90 is more than 9.84 µM. The negative-log IC50 (pIC50) (PBLUC_HILL_SLOPE 3.53, PBLUC_R_SQUARED 0.0667, read-out: LUCIFERASE INFECTION ASSAY - IC50) was 5.09.
With `COc1cccc(NC(=O)c2cccc(C3(CNc4cccc(OC(F)(F)F)c4)CC3)c2)c1`, the IC90 is more than 10 µM. For the same compound, the negative-log IC50 (pIC50) (PBLUC_HILL_SLOPE 3.47, PBLUC_R_SQUARED 0.3, read-out: LUCIFERASE INFECTION ASSAY - IC50) is 5.04.
As to `Oc1cccc(-c2cnc3ccc(-c4cccc(C(F)(F)F)c4)nn23)c1`, the IC90 is more than 10 µM. In addition, the negative-log IC50 (pIC50) (PBLUC_HILL_SLOPE 3.46, PBLUC_R_SQUARED 0.251, read-out: LUCIFERASE INFECTION ASSAY - IC50) was 5.19.
`COc1ccc(-c2cnc3cnc(-c4ccc(N5CCN(C)CC5)nc4)cn23)cc1`: the IC90 is more than 8.24 µM. For the same compound, for the setting “PBLUC_HILL_SLOPE 3.44, PBLUC_R_SQUARED 0.167, read-out: LUCIFERASE INFECTION ASSAY - IC50”, the negative logarithm of the IC50 (pIC50) is 5.20.
Regarding `Cc1cc(C)c(NC(=O)C(=O)NC(C)C)c(C)c1`, the IC90 was 11 µM. Also, for the setting “PBLUC_HILL_SLOPE 3.55, PBLUC_R_SQUARED 0.214, read-out: LUCIFERASE INFECTION ASSAY - IC50”, the pIC50 was 5.23.
Take `FC(F)(F)Oc1cccc(-c2ccc3ncc(-c4cccnc4)n3n2)c1`: the IC90 was 3.34 µM. Moreover, where the note is “PBLUC_HILL_SLOPE 3.42, PBLUC_R_SQUARED 0.748, read-out: LUCIFERASE INFECTION ASSAY - IC50”, the negative-log IC50 (pIC50) was 5.75.
With `CC(=O)c1ccccc1NC(=O)CNc1ccccc1N(C)Cc1ccccc1`, the IC90 was more than 10 µM. Moreover, the negative logarithm of the IC50 (pIC50) (PBLUC_HILL_SLOPE 3.51, PBLUC_R_SQUARED 0.275, read-out: LUCIFERASE INFECTION ASSAY - IC50) was 5.09.
As to `Cc1cc(C)cc(-n2nc(C)c3c2NC(=O)CC3c2ccc3c(c2)OCO3)c1` (configuration not stated), the IC90 is more than 8.79 µM. Also, the pIC50 (PBLUC_HILL_SLOPE 3.57, PBLUC_R_SQUARED 0.259, read-out: LUCIFERASE INFECTION ASSAY - IC50) is 5.12.
For `COc1ccc(C(NCC(=O)Nc2sccc2C(N)=O)c2ccccc2)cc1` (configuration not stated), the IC90 is more than 10 µM. In addition, the pIC50 (PBLUC_HILL_SLOPE 3.52, PBLUC_R_SQUARED 0.517, read-out: LUCIFERASE INFECTION ASSAY - IC50) is 5.27.
In the case of `COc1ccccc1-c1nc2ccc(NC(=O)Nc3ccc(OC(F)(F)F)cc3)cn2n1`, the 90% effect concentration (IC90) is more than 10 µM. Besides, the pIC50 (PBLUC_HILL_SLOPE 3.5, PBLUC_R_SQUARED 0.389, read-out: LUCIFERASE INFECTION ASSAY - IC50) was 5.13.
`O=C1C(=C2NN=NN2c2ccc(-c3ccccc3)cc2)C=Nc2ccccc21`: the IC90 is more than 9.03 µM. Besides, the pIC50 (PBLUC_HILL_SLOPE 3.52, PBLUC_R_SQUARED 0.301, read-out: LUCIFERASE INFECTION ASSAY - IC50) was 5.19.
`COc1ccccc1CNc1ncnc2scc(-c3ccccc3)c12`: the concentration for an effect of 90% (IC90) was more than 10 µM. Moreover, the pIC50 (PBLUC_HILL_SLOPE 3.56, PBLUC_R_SQUARED 0.13, read-out: LUCIFERASE INFECTION ASSAY - IC50) is 5.25.
Take `CC(C)c1ccc(CN(C(=O)Cc2c[nH]c3ccccc23)C2CC2)cc1`: the IC90 was more than 10 µM. Also, the pIC50 (PBLUC_HILL_SLOPE 3.49, PBLUC_R_SQUARED 0.314, read-out: LUCIFERASE INFECTION ASSAY - IC50) is less than 5.00.
Consider `CCOc1ccc(C(C)=O)cc1CSc1nc2ccccc2n1-c1cccc(C)c1`, for which the IC90 is more than 10 µM. Besides, the negative-log IC50 (pIC50) (PBLUC_HILL_SLOPE 3.51, PBLUC_R_SQUARED 0.141, read-out: LUCIFERASE INFECTION ASSAY - IC50) is 5.12.
In the case of `COCCOc1ccc(C(F)(F)F)cc1NC(=O)Nc1ccc(Cl)c(Cl)c1`, the IC90 is 6.68 µM. For the same compound, the pIC50 (PBLUC_HILL_SLOPE 3.42, PBLUC_R_SQUARED 0.295, read-out: LUCIFERASE INFECTION ASSAY - IC50) is 5.45.
For the compound `CC(=O)Nc1ccc(Nc2cc3c(cn2)cc(-c2cccnc2)n3Cc2ccccc2)cc1`, the IC90 was determined as 7.61 µM. Also, the pIC50 (PBLUC_HILL_SLOPE 3.49, PBLUC_R_SQUARED 0.716, read-out: LUCIFERASE INFECTION ASSAY - IC50) was 5.39.
For `COc1cccc(Oc2ccc(C(F)(F)F)cc2NC(=O)c2ccc(NC(=O)C3CC3)s2)c1`, the IC90 was more than 10 µM. In addition, the pIC50 (PBLUC_HILL_SLOPE 3.5, PBLUC_R_SQUARED 0.215, read-out: LUCIFERASE INFECTION ASSAY - IC50) was 5.18.
For the compound `Cc1ccc(CNC(=O)c2ccc(CN3CCc4ccccc4C3)cc2)cc1`, the concentration for an effect of 90% (IC90) was more than 8.91 µM. Also, the negative logarithm of the IC50 (pIC50) (PBLUC_HILL_SLOPE 3.55, PBLUC_R_SQUARED 0.838, read-out: LUCIFERASE INFECTION ASSAY - IC50) was 5.22.
In the case of `COc1ccc(Cn2c(C)nc3oc4ccccc4c(=O)c3c2=O)cc1`, the IC90 is more than 9.47 µM. In addition, the pIC50 (PBLUC_HILL_SLOPE 3.46, PBLUC_R_SQUARED 0.26, read-out: LUCIFERASE INFECTION ASSAY - IC50) was 5.19.
`COc1ccc(-c2cc(C(=O)N[C@@H](CCSC)c3nc4ccccc4[nH]3)c3ccccc3n2)cc1OC`: the IC90 is 8.04 µM. Moreover, the negative-log IC50 (pIC50) (PBLUC_HILL_SLOPE 3.46, PBLUC_R_SQUARED 0.459, read-out: LUCIFERASE INFECTION ASSAY - IC50) was 5.37.
As for `COc1ccc(Nc2nccc3c2cc(-c2ccccc2OC)n3C)c(OC)c1`, the IC90 was 8.07 µM. In addition, the negative-log IC50 (pIC50) (PBLUC_HILL_SLOPE 3.43, PBLUC_R_SQUARED 0.599, read-out: LUCIFERASE INFECTION ASSAY - IC50) is 5.37.
As to `Cc1nc2c3c(C)c(C)n(Cc4ccccc4)c3ncn2n1`, the concentration for an effect of 90% (IC90) is more than 11.3 µM. Under “PBLUC_HILL_SLOPE 3.56, PBLUC_R_SQUARED 0.538, read-out: LUCIFERASE INFECTION ASSAY - IC50”, the pIC50 is 5.03.
Consider `COc1ccc(C(CNC(=O)c2cc3cc(Br)ccc3[nH]2)N2CCCC2)cc1` (configuration not stated), for which the concentration for an effect of 90% (IC90) was more than 10 µM. In addition, the negative logarithm of the IC50 (pIC50) (PBLUC_HILL_SLOPE 3.58, PBLUC_R_SQUARED 0.137, read-out: LUCIFERASE INFECTION ASSAY - IC50) is less than 5.00.
Consider `Cc1nn2c(=O)cc(C(C)C)[nH]c2c1-c1ccccc1`, for which the IC90 amounted to 10.5 µM. For the same compound, the negative-log IC50 (pIC50) (PBLUC_HILL_SLOPE 3.42, PBLUC_R_SQUARED 0.611, read-out: LUCIFERASE INFECTION ASSAY - IC50) is 5.26.
Take `Fc1ccc(-c2cnc3cnc(-c4ccccc4Cl)cn23)cc1Cl`: the IC90 is more than 9.21 µM. The negative logarithm of the IC50 (pIC50) (PBLUC_HILL_SLOPE 3.59, PBLUC_R_SQUARED 0.419, read-out: LUCIFERASE INFECTION ASSAY - IC50) is 5.09.
`Cc1cc(C)cc(NC(=S)NCCCCN2CCN(c3cccc(Cl)c3)CC2)c1`: the 90% effect concentration (IC90) is more than 7.66 µM. For the same compound, the negative logarithm of the IC50 (pIC50) (PBLUC_HILL_SLOPE 3.55, PBLUC_R_SQUARED 0.0766, read-out: LUCIFERASE INFECTION ASSAY - IC50) was 5.12.

(Values after ChEMBL document CHEMBL4483862, “Open-source discovery of chemical leads for next-generation chemoprotective antimalarials” (2018).)
